According to patent US7888285B2, “2,4,6-phenyl substituted cyclic ketoenols” (Bayer CropScience AG, priority 2003, dated 2011):

Experiments:
Format in all cases: in vivo
Spring barley = experiment: Post-emergence crop plant tolerance, greenhouse experiments with safener pretreatment (mefenpyr)
Experimental: (§1) Post-Emergence Crop Plant Tolerance
(§2) Seeds of monocotyledonous and dicotyledonous weed and crop plants are placed in sandy loam in wood fibre pots or in plastic pots, covered with soil and grown in the greenhouse or, during the vegetation period, in the open outside the greenhouse, under good growth conditions. 2 to 3 weeks after sowing, the test plants are treated in the one- to three-leaf stage. The test compounds, which are formulated as wettable powder (WP) or as a fluid (EC), are sprayed onto the plants and the soil surface at various dosage rates with a water application rate of 300 l/ha (converted), with added wetter (0.2 to 0.3%). 3 to 4 weeks after the treatment of the test plants, the effect of the preparations is scored visually in comparison with untreated controls (herbicidal activity in per cent (%): 100% activity=plants have died, 0% activity=like control plants).
(§3) If it is additionally desired to test whether safeners are capable of improving the plant tolerance of test substances with regard to the crop plants, the following options for applying the safeners are used: • Prior to application of the test substances, the crop plants are sprayed with safener at a particular application rate per hectare (usually 1 day prior to application of the test substances). • The safener is applied together with the test substance in the form of a tank mix (the amount of safener being indicated in g/ha or as a safener:herbicide ratio).
(§4) The activity of the safener substance can be assessed in comparison with untreated control plants by comparing the effect of test substances on crop plants which have been treated without and with safener.
(§5) Results of Greenhouse Experiments With Safener/Pretreatment (Safener Mefenpyr (100 g a.i./ha), One Day Prior to Post-Emergence Treatment With the Herbicide)

cereals = experiment: Container experiments with cereals outside the greenhouse, herbicide:mefenpyr 1:2 tank mix; details: 50 g a.i./ha, no safener
Experimental: as §2, §3, §4
Container Experiments with Cereals Outside the Greenhouse Herbicide: mefenpyr 1:2 tank mix

Spring wheat = experiment: Post-emergence crop plant tolerance, greenhouse experiments with safener pretreatment (mefenpyr); details: 25 g a.i./ha herbicide, no safener
Experimental: as §1, §2, §3, §4, §5

Alopecurus [1] = experiment: Post-emergence test; details: greenhouse, 250 g a.i./ha, scored after three weeks
Experimental: (§6) To prepare a suitable active compound preparation, 1 part by weight of active compound is mixed with the stated amount of solvent, the stated amount of emulsifier is added, and the concentrate is diluted with water to the desired concentration.
(§7) Test plants with a height of 5-15 cm are sprayed with the active compound preparation in such a way that the amounts of active compound desired in each case are applied per unit area. The concentration of the spray mixture is chosen in such a way that the amounts of active compound desired in each case are applied in 1 000 1 of water/ha.
(§8) After three weeks, the degree of damage of the plants is scored in % damage in comparison with the development of the untreated control.
(§9) The figures denote: • 0% =no effect (like untreated control) • 100% =total destruction

sugar beet = experiment: Post-emergence test; details: greenhouse, 250 g a.i./ha, scored after three weeks
Experimental: as §6, §7, §8, §9

Setaria [2] = experiment: Post-emergence test; details: greenhouse, 250 g a.i./ha, scored after three weeks
Experimental: as §6, §7, §8, §9

Echinochloa [3] = experiment: Post-emergence test; details: greenhouse, 250 g a.i./ha, scored after three weeks
Experimental: as §6, §7, §8, §9

Avena fatua [4] = experiment: Post-emergence test; details: greenhouse, 250 g a.i./ha, scored after three weeks
Experimental: as §6, §7, §8, §9

Meloidogyne incognita = experiment: Meloidogyne test; details: 20 ppm, with reference to gall formation
Experimental: To prepare a suitable active compound preparation, 1 part by weight of active compound is mixed with the stated amounts of solvent and emulsifier and the concentrate is diluted with water to the desired concentration.
Containers are filled with sand, active compound solution, Meloidogyne incognita egg/larval suspension and lettuce seeds. The lettuce seeds germinate and the plantlets develop. The galls develop on the roots.
After the desired time, the nematicidal efficacy is determined I n % with reference to gall formation. 100% means that no galls were found; 0% means that the number of galls on the treated plants corresponds to that of the untreated control.

[5] = tested on: larvae of the mustard beetle (Phaedon cochleariae); experiment: Phaedon larvae test; details: 1000 ppm
Experimental: [table] To produce a suitable preparation of active compound, 1 part by weight of active compound is mixed with the stated amounts of solvent and emulsifier, and the concentrate is diluted with emulsifier-containing water to the desired concentration. Cabbage leaves (Brassica oleracea) are treated by being dipped into the preparation of active compound of the desired concentration and are infested with the larvae of the mustard beetle (Phaedon cochleariae) while the leaves are still moist.

Alopecurus [6] = experiment: Pre-emergence test; details: greenhouse, 250 g a.i./ha, scored after three weeks
Experimental: (§10) [table] To prepare a suitable active compound preparation, 1 part by weight of active compound is mixed with the stated amount of solvent, the stated amount of emulsifier is added, and the concentrate is diluted with water to the desired concentration. Seeds of the test plant are sown in normal soil. After approximately 24 hours, the soil is sprayed with the active compound preparation in such a way that the amounts of active compound desired in each case are applied per unit area. The concentration of the spray mixture is chosen in such a way that the amounts of active compound desired in each case are applied in 1 000 1 of water/ha. After three weeks, the degree of damage of the plants is scored in % damage in comparison with the development of the untreated control.

Setaria [7] = experiment: Pre-emergence test; details: greenhouse, 250 g a.i./ha, scored after three weeks
Experimental: as §10

Echinochloa [8] = experiment: Pre-emergence test; details: greenhouse, 250 g a.i./ha, scored after three weeks
Experimental: as §10

Avena fatua [9] = experiment: Pre-emergence test; details: greenhouse, 250 g a.i./ha, scored after three weeks
Experimental: as §10

Sinapis = experiment: Pre-emergence test; details: greenhouse, 250 g a.i./ha, scored after three weeks
Experimental: as §10

[10] = 25 g a.i./ha herbicide, no safener
[11] = 50 g a.i./ha herbicide, no safener
[12] = 100 g a.i./ha herbicide, no safener

SMILES	Spring barley observed (%) (Spring barley; [10])	Spring barley observed (%) (Spring barley; [11])	Spring barley observed (%) (Spring barley; [12])	Spring barley observed (%) (cereals)	Spring wheat observed (%) (cereals)	Spring wheat observed (%) (Spring wheat)	other results
CCc1cc(Cl)cc(OC)c1C1=C(O)C2(CCC(OC)CC2)OC1=O (mixture of isomers) [Example I-2-a-2]	60	60	97	20	95		
CCc1cc(Cl)cc(OC)c1C1=C(OC(=O)C(C)(C)CC)C2(CCC(OC)CC2)OC1=O (mixture of isomers) [Example I-2-b-4]			80			100	
CCc1cc(Cl)cc(OC)c1C1=C(OC(=O)C(C)C)C2(CCC(OC)CC2)OC1=O (mixture of isomers) [Example I-2-b-5]	50	97	100			99	
CCc1cc(Cl)cc(OC)c1C1=C(OC(=O)C(C)(C)C)C2(CCC(OC)CC2)OC1=O (mixture of isomers) [Example I-2-b-6]	50	97	98	40	100		
CCOC(=O)OC1=C(c2c(CC)cc(Cl)cc2OC)C(=O)N(CC)C1C (racemic) [Example I-1-c-7]							Spring barley observed (%) (Spring barley; application rate 13 g a.i./ha, without safener): 15%; Spring barley observed (%) (Spring barley; application rate 25 g a.i./ha, without safener): 30%; Spring barley observed (%) (Spring barley; application rate 50 g a.i./ha, without safener): 85%
CCc1cc(Cl)cc(OC)c1C1=C(O)C2(CCC(C)CC2)NC1=O (single isomer, unassigned) [Example I-1-a-4]							degree of damage, Alopecurus (Alopecurus [1]): 100%; degree of damage, sugar beet (sugar beet): 0%; degree of damage, Setaria (Setaria [2]): 100%; degree of damage, Echinochloa (Echinochloa [3]): 100%; degree of damage, Avena fatua (Avena fatua [4]): 100%; Destruction in % after 14 d (Meloidogyne incognita): 98%; Destruction in % after 7 d [5]: 100%; degree of damage, Alopecurus (Alopecurus [6]): 90%; degree of damage, Setaria (Setaria [7]): 100%; degree of damage, Echinochloa (Echinochloa [8]): 100%; degree of damage, Avena fatua (Avena fatua [9]): 100%; degree of damage, Sinapis (Sinapis): 90%
